According to patent US7153958B2, “Farnesyl transferase inhibiting benzoheterocyclic derivatives” (Janssen Pharmaceutica N.V., priority 2000, dated 2006):

Row | SMILES | melting point
1 | Cn1cncc1C(O)(c1ccc(Cl)cc1)c1ccc2c(c1)C(c1cccc(Cl)c1)=NCC(=O)N2 (stereo not drawn) | 200 °C
2 | CN1C(=O)CSC(c2cccc(Cl)c2)c2cc(C(N)(c3ccc(Cl)cc3)c3cncn3C)ccc21 (stereo not drawn) | 218 °C
3 | Cn1cncc1C(c1ccc(Cl)cc1)c1ccc2c(c1)C(c1cccc(Cl)c1)SCC(=O)N2 (stereo not drawn) | 187 °C
4 | Cn1cncc1C(c1ccc(Cl)cc1)c1ccc2c(c1)C(c1cccc(Cl)c1)SCCC(=O)N2 (stereo not drawn) | 199 °C
5 | CN1C(=O)CN=C(c2cccc(Cl)c2)c2cc(C(O)(c3ccc(Cl)cc3)c3cncn3C)ccc21 (stereo not drawn) | 226 °C
6 | Cn1cncc1C(O)(c1ccc(Cl)cc1)c1ccc2c(c1)C(c1cccc(Cl)c1)=NCc1nnnn1-2 (stereo not drawn) | 240 °C
7 | Cn1cncc1C(O)(c1ccc(Cl)cc1)c1ccc2c(c1)C(c1cccc(Cl)c1)OCC(=S)N2 (stereo not drawn) [Example B7, 5-(3-chlorophenyl)-7-[(4-chlorophenyl)hydroxy(1-methyl-1H-imidazol-5-yl)methyl]-1,5-dihydro-4,1-benzoxazepine-2(3H)-thione] | > 300 °C
8 | CN1C(=O)CSC(c2cccc(Cl)c2)c2cc(C(O)(c3ccc(Cl)cc3)c3cncn3C)ccc21 (stereo not drawn) | 186 °C
9 | Cn1cncc1C(O)(c1ccc(Cl)cc1)c1ccc2c(c1)C(c1cccc(Cl)c1)OCC(=O)N2 (stereo not drawn) [Example B1, 5-(3-chlorophenyl)-7-[(4-chlorophenyl)hydroxy(1-methyl-1H-imidazol-5-yl)methyl]-1,5-dihydro-4,1-benzoxazepin-2(3H)-one] | 260 °C
10 | Cn1cncc1C(c1ccc(Cl)cc1)c1ccc2c(c1)C(c1cccc(Cl)c1)SCc1nnnn1-2 (stereo not drawn) | 162 °C
11 | Cn1cncc1C(O)(c1ccc(Cl)cc1)c1ccc2c(c1)C(c1cccc(Cl)c1)SCc1nnnn1-2 (stereo not drawn) | 217 °C
12 | O=C1CN=C(c2ccccc2)c2cc(C(c3ccc(Cl)cc3)n3ccnc3)ccc2N1 (racemic) | 144 °C
13 | CN1C(=O)CN=C(c2cccc(Cl)c2)c2cc(C(N)(c3ccc(Cl)cc3)c3cncn3C)ccc21 (stereo not drawn) | 213 °C
14 | Cn1cncc1C(N)(c1ccc(Cl)cc1)c1ccc2c(c1)C(c1cccc(Cl)c1)=NCc1nnnn1-2 (stereo not drawn) | 218 °C
15 | CN1C(=O)CNC(c2cccc(Cl)c2)c2cc(C(O)(c3ccc(Cl)cc3)c3cncn3C)ccc21 (stereo not drawn) [Example B5, 5-(3-chlorophenyl)-7-[(4-chlorophenyl)hydroxy(1-methyl-1H-imidazol-5-yl)methyl]-1,3,4,5-tetrahydro-1-methyl-2H-1,4-benzodiazepin-2-one] | 208 °C
16 | Cn1cncc1C(O)(c1ccc(Cl)cc1)c1ccc2c(c1)C(c1cccc(Cl)c1)SCC(=O)N2 (stereo not drawn) | 210 °C
17 | Cn1cncc1C(O)(c1ccc(Cl)cc1)c1ccc2c(c1)C(c1cccc(Cl)c1)SCC(=O)N2CC1CC1 (stereo not drawn) | 245 °C
18 | CN1C(=O)COC(c2cccc(Cl)c2)c2cc(C(O)(c3ccc(Cl)cc3)c3cncn3C)ccc21 (stereo not drawn) [Example B3, 5-(3-chlorophenyl)-7-[(4-chlorophenyl)hydroxy(1-methyl-1H-imidazol-5-yl)methyl]-1,5-dihydro-1-methyl-4,1-benzoxazepin-2(3H)-one] | 160 °C
